Assay results reported in US11414387B2, “Oxoacridinyl acetic acid derivatives and methods of use” (Stingthera, Inc., priority 2017, dated 2022).

The molecules below were run against STING protein (Homo sapiens (Human), UniProt Q86WV6, H232R) (assay: Cell based reporter assay of IRF activation (IRF-luciferase), THP1-dual-KI R232). Conditions: read-out: THP1-dual-KI R232_IRF(Luciferase)_Activity Maximum measured (%).
Chain of STING protein (Q86WV6 whole entry H232R): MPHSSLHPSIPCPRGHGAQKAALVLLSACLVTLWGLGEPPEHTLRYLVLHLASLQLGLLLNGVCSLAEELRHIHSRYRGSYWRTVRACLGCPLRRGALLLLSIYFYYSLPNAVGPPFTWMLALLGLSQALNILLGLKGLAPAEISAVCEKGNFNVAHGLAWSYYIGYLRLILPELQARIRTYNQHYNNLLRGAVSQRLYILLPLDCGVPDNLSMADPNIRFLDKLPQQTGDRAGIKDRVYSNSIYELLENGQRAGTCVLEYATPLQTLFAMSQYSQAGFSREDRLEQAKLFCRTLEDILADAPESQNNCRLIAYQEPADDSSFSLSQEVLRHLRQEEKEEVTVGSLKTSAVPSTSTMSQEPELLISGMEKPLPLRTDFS

Emax [%] | Compound
< 5 | COCc1c(Cl)ccc2c(=O)c3ccccc3n(CC(=O)O)c12 [Compound 229]
5 to 25 | Cc1ccc2c(=O)c3ccc(Cl)c(Br)c3n(CC(=O)O)c2c1 [Compound 112]
> 50 | O=C(O)Cn1c2cc(NC3CCCCCC3)ccc2c(=O)c2ccc(Cl)c(Cl)c21 [Compound 122]
< 5 | O=C(O)Cn1c2ccc(-c3ccccc3)cc2c(=O)c2ccc(Cl)c(Cl)c21 [Compound 125]
< 5 | CC(C)(C)c1ccc2c(=O)c3ccc(Cl)c(OC4CCC4)c3n(CC(=O)O)c2c1 [Compound 228]

What follows are molecules tested against mSTING-R232 (Mus musculus, UniProt Q3TBT3) (assay: STING differential scanning fluorimetry (DSF) assay, mouse STING). Conditions: net shift in melting temperature.

MOUSE DSF_6xHIS-SUMO Tm Shift (° C.) | Compound
C (“C” = 5-15° C.) | Cc1ccc2c(=O)c3ccc(Cl)c(Br)c3n(CC(=O)O)c2c1 [Compound 112]
D (“D” > 15° C.) | O=C(O)Cn1c2cc(NC3CCCCCC3)ccc2c(=O)c2ccc(Cl)c(Cl)c21 [Compound 122]
B (“B” = 0-5° C.) | O=C(O)Cn1c2ccc(-c3ccccc3)cc2c(=O)c2ccc(Cl)c(Cl)c21 [Compound 125]

Each molecule was assayed against hSTING-CTD (Homo sapiens (Human), UniProt Q86WV6) (assay: Human STING protein FP competition concentration response assay). Conditions: not given.
Type: binding
Procedure: A validated STING ligand, such as c-di-GMP, which is labeled with a read-out signal (e.g., a fluorescence signal such as fluorescein), is mixed with STING-CTD (e.g., mouse STING-CTD or human STING-CTD) with or without the presence of a compound of the present application. Changes in the read-out signal are measured (e.g., by fluorescence anisotropy) to determine the binding of the compound to STING-CTD.
Fluorescein labeled c-di-GMP, a validated STING ligand, was mixed with recombinant hSTING-CTD in a homogenous assay format with or without the presence of a compound of the present application (titrated) in PBS in black 384-well plates (10 μL per well). The fluorescence anisotropy was determined on a PerkinElmer EnVisions multi-mode plate reader. The plate can be read immediately after mixing the reagents or after a few hours without change of signals.
• 1) hSTING (Supplier: HDB) • 2) 2′-Fluo-AHC-c-di GMP (BIOLOG #F009) • 3) 2′3′-cGAMP (BIOLOG #C161) • 4) DMXAA (InvivoGen #tlrl-dmx) • 5) DMSO (Sigma, #D5879-100 mL) • 6) 10×PBS(HDB #MCP-020) • 7) Assay plate, 384-well black plate, solid black bottom (Greiner #784076) • 8) Compound dilution intermediate plate, 384 LDV plate (Labcyte #LP-0200) • 9) Liquid handler, ECHO550 (Labcyte) • 10) Liquid handler, Bravo (Aglient) • 11) Reader, Envision (PerkinElmer) • 12) Centrifuge (Eppendorf) • 13) Multichannel Pipette (Raining) • 14) 10 ml Reservoir (Corning) • 15) 15 ml centrifuge tube (Corning) • 16) Adhesive Plate seals (BioRad) Compound Preparation • a) Containers of each compound were centrifuged at 1000 rpm for 5 min. • b) Compounds were dissolved in DMSO at 30 mM. • c) Compounds were sufficiently vortexed, and centrifuged at 1000 rpm for 1 min. • d) 16 uL of the compound solution was transferred into a LDV Compound Plate. • e) 2-fold serial dilutions of the compound solution were made with DMSO, and 14 concentrations were made in the 384-well LDV Compound Plate. • f) The LDV plate was spun at 1000 rpm for 60 sec and sealed with foil (stored at −20° C. if not used immediately). • g) 335 nL of each compound from the LDV Compound Plate was transferred to Assay Plate (ECHO550). Probe Preparation • a) 200 uM probe stock (2′-Fluo-AHC-c-diGMP) was diluted by ddH2O to 6 uM working concentration. • b) 10-12 uL 6 uM working solution of probe was transferred into the LDV plate. • c) 50 nL per well 6 uM working solution of probe was transferred from the LDV plate to each well of the empty Assay Plate (Greiner 784076) by ECHO550 Buffer mode. • d) Probe final concentration was 30 nM when assay system was 10 uL. • e) The Assay Plate was spun at 1000 rpm for 1 min. Compound Addition • a) After the LDV Compound Plate was prepared, 335 nL compound (ECHO550 DMSO mode) was transferred from the LDV Compound Plate into the Assay Plate (Greiner 784076) containing 50 nL probe in each well according to the Assay Plate layout. • b) DMSO final concentration was 3.35% when assay system was 10 uL. • c) The Assay Plate was spun at 1000 rpm for 1 min. Protein Addition • a) Aliquot of hSTING protein was thawed on ice, briefly to generate uniform solution. • b) 55 uM stock protein was diluted in 1×PBS assay buffer to generate 10 uM final solutions. • c) For test compound and ZPE wells, 10 μL per well of 10 uM protein solutions was added into the Assay Plate containing both the probe and test compounds or DMSO using multichannel pipette. • d) For HPE wells, 10 μL/well of 1×PBS assay buffer instead of protein was added into the Assay Plate containing both the probe and DMSO using multichannel pipette. • e) The Assay Plate was spun at 1000 rpm for Imin. • f) The Assay Plate was incubated at r.t. for 10-20 min.
The EnVision plate reader was used to record the FA value of each well immediately after mixing the reagents or after a few hours without change of signals.
The raw data and calculated data (Fluorescence anisotropy (FA)) was exported from the EnVision reader. […]

Chain of hSTING-CTD (Q86WV6 135-379): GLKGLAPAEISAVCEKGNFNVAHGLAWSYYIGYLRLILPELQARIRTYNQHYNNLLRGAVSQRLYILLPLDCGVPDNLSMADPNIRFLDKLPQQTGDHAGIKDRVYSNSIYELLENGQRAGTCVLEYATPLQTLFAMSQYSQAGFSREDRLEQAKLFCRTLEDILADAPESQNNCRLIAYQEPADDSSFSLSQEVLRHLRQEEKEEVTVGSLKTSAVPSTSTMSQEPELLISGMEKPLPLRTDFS

Compound | IC50 [µM]
O=C(O)Cn1c2ccccc2c(=O)c2cc(Cl)c(Cl)cc21 [Compound 57] | > 1000
Cc1cc2c(=O)c3ccc(Cl)c(Cl)c3n(CC(=O)O)c2cc1N1CCCCC1 [Compound 62] | > 1000
O=C(O)CN1c2ccccc2Cc2cc(CCC3CCCCC3)ccc21 [Compound 90] | 500 to 1000
O=C(O)Cn1c2cc(Br)ccc2c(=O)c2ccc(Cl)c(Cl)c21 [Compound 79] | 100 to 500
O=C(O)Cn1c2ccccc2c(=O)c2cc(Cl)cc(Cl)c21 [Compound 58] | > 1000
O=C(O)Cn1c2ccc(CCc3ccccc3)cc2c(=O)c2ccc(Cl)c(Cl)c21 [Compound 88] | 100 to 500
CC(C)c1ccc(-c2cccc3c2c(=O)c2ccc(Cl)c(Cl)c2n3CC(=O)O)cc1 [Compound 54] | 100 to 500
CC(C)c1ccc(-c2ccc3c(c2)c(=O)c2ccc(Cl)c(Cl)c2n3CC(=O)O)cc1 [Compound 72] | < 100
CCc1cccc2c1c(=O)c1ccc(Cl)c(Cl)c1n2CC(=O)O [Compound 49] | > 1000
O=C(O)Cn1c2ccccc2c(=O)c2c(Cl)ccc(Cl)c21 [Compound 56] | 500 to 1000
O=C(O)Cn1c2ccccc2c(=O)c2c(Cl)c(Cl)ccc21 [Compound 48] | > 1000
CSc1ccc2c(=O)c3ccc(SC)c(Cl)c3n(CC(=O)O)c2c1 [Compound 46] | > 1000
Cc1ccc2c(=O)c3cc(CCC4CCCCC4)ccc3n(CC(=O)O)c2c1 [Compound 76] | 100 to 500
O=C(O)Cn1c2ccccc2c(=O)c2cc(/C=C\c3ccccc3)ccc21 [Compound 80] | 100 to 500
O=C(O)Cn1c2ccccc2c(=O)c2cc(C#CC3CCCCC3)ccc21 [Compound 39] | 100 to 500
O=C(O)Cn1c2ccccc2c(=O)c2ccc(Cl)c(Br)c21 [Compound 51] | 100 to 500
CC1(C)CCC=C(c2ccc3c(c2)c(=O)c2ccccc2n3CC(=O)O)C1 [Compound 73] | 100 to 500
O=C(O)Cn1c2cc(F)ccc2c(=O)c2ccc(Cl)c(Cl)c21 [Compound 30] | > 1000
Cc1ccccc1CCc1ccc2c(c1)c(=O)c1ccccc1n2CC(=O)O [Compound 74] | 100 to 500
O=C(O)Cn1c2cc(-c3ccccc3)ccc2c(=O)c2ccc(Cl)c(Cl)c21 [Compound 65] | < 100
CC(C)c1cccc2c1c(=O)c1ccc(Cl)c(Cl)c1n2CC(=O)O [Compound 55] | 500 to 1000
CC(C)c1ccc(-c2ccc3c(c2)c(=O)c2ccccc2n3CC(=O)O)cc1 [Compound 41] | < 100
CC(C)c1ccc(-c2ccc3c(=O)c4ccc(Cl)c(Cl)c4n(CC(=O)O)c3c2)cc1 [Compound 91] | < 100
O=C(O)Cn1c2ccccc2c(=O)c2ccc(F)c(Cl)c21 [Compound 83] | > 1000
COc1cccc(CCc2ccc3c(c2)c(=O)c2ccccc2n3CC(=O)O)c1 [Compound 43] | 500 to 1000

Further lines, results first:

IC50 [µM] | Compound
< 100 | COCc1c(Cl)ccc2c(=O)c3ccccc3n(CC(=O)O)c12 [Compound 229]
< 100 | O=C(O)Cn1c2cc(NC3CCC3)ccc2c(=O)c2ccc(Cl)c(Cl)c21 [Compound 117]
< 100 | CCNc1ccc2c(=O)c3ccc(Cl)c(Cl)c3n(CC(=O)O)c2c1 [Compound 123]
< 100 | O=C(O)Cn1c2cc(C3=CCCCC3)ccc2c(=O)c2ccc(Cl)c(Cl)c21 [Compound 116]
< 100 | Cc1ccc2c(=O)c3ccc(Cl)c(Br)c3n(CC(=O)O)c2c1 [Compound 112]
100 to 500 | Cc1ccc2c(c1C)c(=O)c1ccc(Cl)c(Cl)c1n2CC(=O)O [Compound 96]
< 100 | O=C(O)Cn1c2cc(NC3CCCCCC3)ccc2c(=O)c2ccc(Cl)c(Cl)c21 [Compound 122]
< 100 | CC(C)Nc1ccc2c(=O)c3ccc(Cl)c(Cl)c3n(CC(=O)O)c2c1 [Compound 119]
< 100 | O=C(O)Cn1c2ccc(-c3ccccc3)cc2c(=O)c2ccc(Cl)c(Cl)c21 [Compound 125]
< 100 | N#Cc1ccc2c(=O)c3ccccc3n(CC(=O)O)c2c1Cl [Compound 107]
> 1000 | CC(C)(C)c1ccc2c(=O)c3ccc(Cl)c(OC4CCC4)c3n(CC(=O)O)c2c1 [Compound 228]
500 to 1000 | Cc1ccc2c(c1)c(=O)c1ccc(Cl)c(Cl)c1n2CC(=O)O [Compound 121]
500 to 1000 | Cc1cc2c(=O)c3ccc(Cl)c(Cl)c3n(CC(=O)O)c2cc1F [Compound 93]
< 100 | O=C(O)Cn1c2cc(NC3CCCC3)ccc2c(=O)c2ccc(Cl)c(Cl)c21 [Compound 118]
> 1000 | COc1c(Cl)ccc2c(=O)c3ccc(C4CCNCC4)cc3n(CC(=O)O)c12 [Compound 226]

These molecules were tested against hSTING-R232 (Homo sapiens (Human), UniProt Q86WV6, H232R) (assay: STING differential scanning fluorimetry (DSF) assay, WT human STING). Conditions: WT (R232) human STING aa140-379, net shift in melting temperature.
Chain of hSTING-R232 (Q86WV6 140-379 H232R): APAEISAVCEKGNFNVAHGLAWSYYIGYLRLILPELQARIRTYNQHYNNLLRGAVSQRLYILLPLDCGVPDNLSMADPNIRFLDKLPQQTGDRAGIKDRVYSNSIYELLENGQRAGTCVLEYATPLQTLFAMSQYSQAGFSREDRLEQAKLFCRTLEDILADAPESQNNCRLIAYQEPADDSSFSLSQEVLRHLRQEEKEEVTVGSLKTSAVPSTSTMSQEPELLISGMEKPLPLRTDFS
Procedure: A STING DSF assay was performed to determine protein thermostability shift in response to small molecule ligand binding. A STING thermostability shift assay based on differential scanning fluorimetry was used to measure (1) the net shift in melting temperature (ΔTm)between the apo and ligand-bound states of the STING protein and (2) the concentration of the thermal denaturation transition (EC50) as a surrogate measure of binding affinity (K). […] Protein in assay buffer was transferred to a 384 well plate and incubated with the hydrophobic fluorescent dye SYBR Orange. A temperature ramp was applied to the plate and the resulting dye fluorescence was plotted as a function of temperature. The first derivative of this function (dF/dT) was then used to extrapolate the melting temperature of the protein at various concentrations of compound and determine the thermal denaturation profile of a protein/compound complex.
• 1. Protein construct (affinity tag removal vs SUMO-fusion construct) • 2. Protein concentration • 3. Dye concentration • 4. Buffer • 5. Thermal ramp velocity • 6. DMSO tolerance • 7. Compound titration parameters • 8. […] 5 μM purified Target STING Protein • 3. 8 μM Sypro Orange Dye • 4. Buffer: 100 mM NaCl, 30 mM HEPES, pH 7.5 • 5. Thermal Ramp: 0.5° C./min • 6. <1% DMSO • 7. 11 point, 2 fold dilution, duplicate, 300 μM high concentrations • 8.

WT_DSF_hSWAT Tm Shift (° C.) | Compound
B (“B” = 0-2° C.) | COCc1c(Cl)ccc2c(=O)c3ccccc3n(CC(=O)O)c12 [Compound 229]
B (“B” = 0-2° C.) | Cc1ccc2c(=O)c3ccc(Cl)c(Br)c3n(CC(=O)O)c2c1 [Compound 112]
C (“C” = 2-7° C,) | O=C(O)Cn1c2cc(NC3CCCCCC3)ccc2c(=O)c2ccc(Cl)c(Cl)c21 [Compound 122]
C (“C” = 2-7° C,) | O=C(O)Cn1c2ccc(-c3ccccc3)cc2c(=O)c2ccc(Cl)c(Cl)c21 [Compound 125]
C (“C” = 2-7° C,) | CC(C)(C)c1ccc2c(=O)c3ccc(Cl)c(OC4CCC4)c3n(CC(=O)O)c2c1 [Compound 228]
C (“C” = 2-7° C,) | COc1c(Cl)ccc2c(=O)c3ccc(C4CCNCC4)cc3n(CC(=O)O)c12 [Compound 226]

These molecules were tested against hSTING-WT (Homo sapiens (Human), UniProt Q86WV6, H232R) (assay: Radiometric filtration binding competition assay, hSTING-WT). Conditions: not given.
Chain of hSTING-WT (Q86WV6 140-379 H232R): as above

IC50 [µM] | Compound
> 300 | COCc1c(Cl)ccc2c(=O)c3ccccc3n(CC(=O)O)c12 [Compound 229]
20 to 100 | Cc1ccc2c(=O)c3ccc(Cl)c(Br)c3n(CC(=O)O)c2c1 [Compound 112]
20 to 100 | O=C(O)Cn1c2cc(NC3CCCCCC3)ccc2c(=O)c2ccc(Cl)c(Cl)c21 [Compound 122]
20 to 100 | O=C(O)Cn1c2ccc(-c3ccccc3)cc2c(=O)c2ccc(Cl)c(Cl)c21 [Compound 125]
20 to 100 | CC(C)(C)c1ccc2c(=O)c3ccc(Cl)c(OC4CCC4)c3n(CC(=O)O)c2c1 [Compound 228]
100 to 300 | COc1c(Cl)ccc2c(=O)c3ccc(C4CCNCC4)cc3n(CC(=O)O)c12 [Compound 226]
